Data on five molecules can be found in patent publication US6656973B2, “(E)-4-carboxystyrl-4-chlorobenzyl sulfone and pharmaceutical compositions thereof” (Temple University - Of the Commonwealth System of Higher …, priority 1999, dated 2003).

Structures are written as SMILES. “Also recorded” adds a separate entry of the source.

Assay [1] concerns HFL-1 cells. Nature of the assay: Protection of normal human fibroblasts from anticancer agent cytotoxicity (Protection Ratio). The settings on record: 2.0 μM sulfone 24 hour preincubation, then cisplatin 5.0 μM; viable cells at 96 hours. It is filed as cell-based. How it is done:
HFL-1 cells were plated at a cell density of 1.0×10^5 in 1 ml of medium. Twenty-four hours following plating, 2.0 μM of (E)-4-fluorostyryl-4-chlorobenzylsulfone was added to the medium. Following a 24 hour preincubation with the styryl sulfone, the various cytotoxic agents listed in Table 6 were added to the cells, at the concentrations given in Table 6. the number of viable cells was determined by Trypan blue exclusion using a hematocytometer 96 hours after exposure to cytotoxic agent. The “Protection Ratio” is the number of viable cells following treatment with (E)-4-fluorostyryl-4-chlorobenzylsulfone and cytotoxic agent, divided by the number of viable cells remaining after treatment with cytotoxic agent alone. A protection ratio of 2 or more is considered highly significant, while is protection ratio of 1.5-2 is considered less significant.

Assay [2] has as its system HFL-1 cells. As to the kind of experiment: Protection of normal human fibroblasts from paclitaxel cytotoxicity. It is filed as cell-based. The settings on record: HFL-1 cells pretreated with 2.0 μM for 8 hours, then paclitaxel (250 μM); viable cells 96 hours after paclitaxel. How it is done:
FIG. 3 is a graph of the effect of paclitaxel on HFL-1 cells which were either pre-treated with (E)-4-fluorostyryl-4-chlorobenzylsulfone and then exposed to paclitaxel, or treated simultaneously with both agents. Cells were enumerated 96 hours after exposure to paclitaxel.
HFL-1 cells were plated at a cell density of 1.0×10^5 per well 24 hours prior to drug addition. Cells were pretreated with (E)-4-fluorostyryl-4-chlorobenzylsulfone (2.0 μM) for 8 hours and then exposed to paclitaxel (250 μM). Other cells were treated with paclitaxel alone, or both agents simultaneously. Cells were enumerated by Trypan blue exclusion using a hematocytometer 96 hours after exposure to paclitaxel. The ordinate in FIG. 3 represents the number of viable cells following treatment with (E)-4-fluorostyryl-4-chlorobenzylsulfone and paclitaxel, divided by the number of viable cells remaining after treatment with paclitaxel alone.

The test system of another assay is ICR female mice. Nature of the assay: Protection of mice from paclitaxel toxicity (mortality). Format: in vivo. The settings on record: 50 mg/Kg i.p. pre-treatment before 150 mg/kg paclitaxel i.p.; mortality at 48 and 144 hours. How it is done: The styryl sulfone was given 24 hours before paclitaxel, 4 hours before paclitaxel, or simultaneously with paclitaxel. Control animals received paclitaxel alone or styryl sulfone alone. Mortality was assessed 48 after paclitaxel injection.
FIG. 6 is similar to FIG. 5, except that mortality was assessed 144 hours post paclitaxel administration.
ICR female mice age 10-12 weeks (Taconic) were divided into the following treatment groups and received intraperitoneal injections of 50 mg/Kg (E)-4-fluorostyryl-4-chlorobenzylsulfone dissolved in DMSO and/or 150 mg/kg paclitaxel (Taxol, Sigma Chemical Co.) dissolved in DMSO. The styryl sulfone was given 24 hours before paclitaxel, 4 hours before paclitaxel, or simultaneously with paclitaxel. Control animals received paclitaxel alone or styryl sulfone alone. Mortality was assessed 48 and 144 hours after paclitaxel injection. The results are shown in FIG. 5 (48 hours post paclitaxel administration) and FIG. 6 (144 hours post paclitaxel administration). Paclitaxel toxicity in mice is abrogated by pre-treatment with (E)-4-fluorostyryl-4-chlorobenzylsulfone.

For assay [3], the system named is HFL-1 cells. Nature of the assay: Protection of normal human fibroblasts from vincristine cytotoxicity. Format: cell-based. The conditions noted are these: 2.0 μM sulfone 24 hours before vincristine, viability 96 hours after vincristine. The procedure:
Normal HFL cells were treated with 0 to 0.250 nM vincristine and 2.0 μM (E)-4-fluorostyryl-4-chlorobenzylsulfone as indicated. Cell viability was assessed 96 hours after vincristine was added. “V”, vincristine alone; “A→V”, styryl sulfone followed by vincristine 24 hours later; “A+V”, simultaneous styryl sulfone and vincristine treatment; “V→A”, vincristine followed by styryl sulfone 24 hours later.
HFL-1 cells were treated with […] vincristine and, optionally, 2.0 μM (E)-4-fluorostyryl-4-chlorobenzylsulfone either 24 hours before or after vincristine treatment, or simultaneously with vincristine treatment. Cell viability was assessed 96 hours after the addition of vincristine. The results are shown in FIG. 4: “V”, vincristine alone; “A→V”, styryl sulfone followed by vincristine 24 hours later; “A+V”, simultaneous styryl sulfone and vincristine treatment; “V→A”, vincristine followed by styryl sulfone 24 hours later.

A further assay concerns Normal human HFL-1 cells. Nature of the assay: Cytoprotection assay against paclitaxel. The settings on record: 2.0 or 10 μM sulfone, paclitaxel 250 nM at time zero or 24 hours later, viable cells after 96 hours of paclitaxel. It is filed as cell-based. Details: key: +: A compound was deemed to be active if the number of viable cells following the combination treatment was higher than the number of cells after treatment with paclitaxel alone. The procedure: The cytoprotective activity of the same Istyryl benzylsulfones was determined as follows. Normal human HFL-1 cells were plated at a cell density of 1.0×10^5 cells per well in six culture plates. Styryl benzylsulfone was added 24 hours later at a final concentration of either 2.0 or 10 μM. The time of styryl sulfone addition was designated as time zero. Paclitaxel (250 nM) was added at either time zero, or 24 hours after time zero. The total number of viable cells was determined, as described above, after 96 hours of paclitaxel treatment. A compound was deemed to be active if the number of viable cells following the combination treatment was higher than the number of cells after treatment with paclitaxel alone.

For assay [4], the system named is HFL-1 cells. Nature of the assay: Long term exposure of normal human fibroblasts, cell count. Format: cell-based. The conditions noted are these: 2.5 or 5.0 μM for 48 or 72 hours, counted 96 hours after the incubation period. The procedure: Cells were exposed to either 2.5 or 5.0 μM of the styryl sulfone […] and counted.
HFL-1 cells were plated at a cell density of 1.0×10^5 per well 24 hours prior to drug addition. Cells were exposed to either 2.5 or 5.0 μM (E)-4-fluorostyryl-4-chlorobenzylsulfone for 48 or 72 hours. Cells were counted 96 hours after the incubation period.

For `O=S(=O)(/C=C/c1ccc(F)cc1)Cc1ccc(Cl)cc1` [Example 7, (E)-4-fluorostyryl-4-chlorobenzyl sulfone], in the assay on HFL-1 cells [1], the “Protection Ratio” value amounted to 1.3. In the assay with HFL-1 cells [2], the “protection from the toxic effects of paclitaxel” value is recorded as “conferred protection from the toxic effects of paclitaxel”. The “paclitaxel toxicity in mice (mortality)” value with ICR female mice is on record as “abrogated”. Moreover, in the assay with HFL-1 cells [3], the “protection from the toxic effects of vincristine” value is recorded as “conferred protection from the toxic effects of vincristine; also recorded: Vincristine toxicity is abrogated”. Further, the Cytoprotection result in the assay on Normal human HFL-1 cells was “+”. In addition, the “replication rate (cell count)” value with HFL-1 cells [4] is listed as “transiently reduced replication rates”.
As for `O=S(=O)(/C=C/c1ccc(Cl)cc1)Cc1ccc(Cl)cc1` [Example 8, (E)-4-chlorostyryl-4-chlorobenzyl sulfone], the Cytoprotection result with Normal human HFL-1 cells is “+”.
Take `O=S(=O)(/C=C/c1ccc(F)cc1Cl)Cc1ccc(Cl)cc1` [Example 9, (E)-2-chloro-4-fluorostyryl-4-chlorobenzyl sulfone]: in the assay on Normal human HFL-1 cells, the Cytoprotection result is “+”.
On the same count and under the same terms, the result for `O=C(O)c1ccc(/C=C/S(=O)(=O)Cc2ccc(Cl)cc2)cc1` [Example 10, (E)-4-carboxystyryl-4-chlorobenzyl sulfone] reads “+”; that for `O=S(=O)(/C=C/c1ccc(F)cc1)Cc1ccc(Cl)cc1Cl` [Example 11, (E)-4-fluorostyryl-2,4-dichlorobenzyl sulfone], “+”.
